Among the data in patent US20250206730A1 (AUTOTELIC BIO INC., priority 2022, published 2025) are IC50 values, retold here.

Where only a bound is given, the exact number is not on record here.

In this assay the test system is TGF-β signaling. Kind of assay: Assay for evaluating cellular inhibition of TGF-β signaling, 4T1 (SBE-luc2P) luciferase reporter. The class given is cell-based. To be noted: Mus musculus, 4T1, 4T1 (SBE-luc2P) transient pool, 0.2% FBS, 2 h pre-treatment, TGF-β1 2 ng/mL 24 h; read-out: IC50 4T1 Cell. Here is the method: [Example 2] Assay for Evaluating Cellular Inhibition of TGF-β Signaling
4T1 (SBE-luc2P) transient pool that have SBE-luc2P (hygro) expression plasmid or HEK293 (SBE reporter) stable cells (BPS bioscience) were seeded at 6×10^3 cells/well or 2.5×10^4 cells/well in 96-well plate, respectively. 4T1 (SBE-luc2P) transient pool were pre-treated with novel compound synthesized in Example 1 above in 0.2% FBS at approximately 60% confluence at 37° C. in 5% CO2. Also, HEK293 (SBE reporter) stable cells were pre-treated with each test compounds of formula in 0.5% FBS at approximately 80% confluence at 37° C. in 5% CO2. After 2 hours, cells were treated with TGF-β1 (2 ng/mL) for 24 h at 37° C. in 5% CO2. Cell lysates were prepared using Luciferase Assay (Promega) according to the manufacturer's instruction, and luminescence was measured by a plate reader, Biotek Synergy H1 (Vermont, USA).

The term IC50 denotes the point on the concentration scale where inhibition reaches its midpoint. As for `COC(=O)c1ccc(Nc2cc(Oc3sc(C4CC4)nc3-c3ccccc3)ccn2)nc1` [A-130, Methyl 6-((4-((2-cyclopropyl-4-phenylthiazol-5-yl)oxy)pyridin-2-yl)amino)nicotinate], the IC50 is less than 100 nM. Regarding `Cc1nc(-c2ccccc2)c(Oc2ccnc(Nc3ccc(F)nc3)c2)s1` [A-83, N-(6-Fluoropyridin-3-yl)-4-((2-methyl-4-phenylthiazol-5-yl)oxy)pyridin-2-amine], the IC50 was greater than 100 nM. `Cc1nc(-c2ccccc2)c(Oc2ccnc(Nc3ccc(Cl)nc3)c2)s1` [A-84, N-(6-Chloropyridin-3-yl)-4-((2-methyl-4-phenylthiazol-5-yl)oxy)pyridin-2-amine]: the IC50 was greater than 100 nM. The figure for `Cc1nc(-c2ccccc2)c(Oc2ccnc(NCc3cccnc3)c2)s1` [A-81, 4-((2-Methyl-4-phenylthiazol-5-yl)oxy)-N-(pyridin-3-ylmethyl)pyridin-2-amine] is greater than 100 nM; for `Nc1nc(-c2ccccc2)c(Oc2ccnc(Nc3cccc(S(=O)(=O)O)c3)c2)s1` [A-18, 3-((4-((2-Amino-4-phenylthiazol-5-yl)oxy)pyridin-2-yl)amino)benzenesulfonic acid] it is greater than 100 nM; for `Cc1nc(-c2ccccc2)c(Oc2ccnc(Nc3cccc(C(=O)N(C)C)c3)c2)s1` [A-67, N,N-Dimethyl-3-((4-((2-methyl-4-phenylthiazol-5-yl)oxy)pyridin-2-yl)amino)benzamide] it is less than 100 nM. The result for `COC(=O)c1cccc(Nc2cc(Oc3sc(C(C)C)nc3-c3ccccc3)ccn2)n1` [A-216, Methyl 6-((4-((2-Isopropyl-4-phenylthiazol-5-yl)oxy)pyridin-2-yl)amino)picolinate] reads greater than 100 nM; that for `Cc1nc(-c2ccccc2)c(Oc2ccnc(Nc3cccc(S(=O)(=O)N(C)C)c3)c2)s1` [A-74, N,N-Dimethyl-3-((4-((2-methyl-4-phenylthiazol-5-yl)oxy)pyridin-2-yl)amino)benzenesulfonamide], less than 100 nM; that for `Nc1nc(-c2ccccc2)c(Oc2ccnc(Nc3cccnc3)c2)s1` [A-6, 4-Phenyl-5-((2-(pyridin-3-ylamino)pyridin-4-yl)oxy)thiazol-2-amine], greater than 100 nM. Consider `COc1ccc(Nc2cc(Oc3sc(N)nc3-c3ccccc3)ccn2)cn1` [A-31, 5-((2-((6-Methoxypyridin-3-yl)amino)pyridin-4-yl)oxy)-4-phenylthiazol-2-amine], for which the IC50 was greater than 100 nM.

Consider `Nc1nc(-c2ccccc2)c(Oc2ccnc(Nc3ccnc(F)c3)c2)s1` [A-30, 5-((2-((2-Fluoropyridin-4-yl)amino)pyridin-4-yl)oxy)-4-phenylthiazol-2-amine], for which the IC50 was greater than 100 nM. As for `Nc1nc(-c2ccccc2)c(Oc2ccnc(Nc3cccc(S(=O)(=O)NC4CC4)c3)c2)s1` [A-20, 3-((4-((2-Amino-4-phenylthiazol-5-yl)oxy)pyridin-2-yl)amino)-N-cyclopropylbenzenesulfonamide], the IC50 was less than 100 nM.

On to `Nc1nc(-c2ccccc2)c(Oc2ccnc(Nc3ccc(Cl)nc3)c2)s1` [A-35, 5-((2-((6-Chloropyridin-3-yl)amino)pyridin-4-yl)oxy)-4-phenylthiazol-2-amine], for which the IC50 is greater than 100 nM. As to `COc1cc(Nc2cc(Oc3sc(C)nc3-c3ccccc3)ccn2)ccn1` [A-88, N-(2-Methoxypyridin-4-yl)-4-((2-methyl-4-phenylthiazol-5-yl)oxy)pyridin-2-amine], the IC50 is less than 100 nM. On to `CN(C)S(=O)(=O)c1cccc(Nc2cc(Oc3sc(N)nc3-c3ccccc3)ccn2)c1` [A-13, 3-((4-((2-Amino-4-phenylthiazol-5-yl)oxy)pyridin-2-yl)amino)-N,N-dimethylbenzenesulfonamide], for which the IC50 is less than 100 nM. The result for `Cc1nc(-c2ccccc2)c(Oc2ccnc(NCc3ccncc3)c2)s1` [A-80, 4-((2-Methyl-4-phenylthiazol-5-yl)oxy)-N-(pyridin-4-ylmethyl)pyridin-2-amine] reads greater than 100 nM; that for `Nc1nc(-c2ccccc2)c(Oc2ccnc(Nc3cccc(NS(=O)(=O)C(F)(F)F)c3)c2)s1` [A-36, N-(3-((4-((2-Amino-4-phenylthiazol-5-yl)oxy)pyridin-2-yl)amino)phenyl)-1,1,1-trifluoromethanesulfonamide], less than 100 nM. In the case of `Cc1nc(-c2ccccc2)c(Oc2ccnc(Nc3cccnc3)c2)s1` [A-82, 4-((2-Methyl-4-phenylthiazol-5-yl)oxy)-N-(pyridin-3-yl)pyridin-2-amine], the IC50 was greater than 100 nM. The figure for `COC(=O)C(C)(C)c1cccc(Nc2cc(Oc3sc(C)nc3-c3cccc(C)n3)ccn2)c1` [A-308, Methyl 2-methyl-2-(3-((4-((2-methyl-4-(6-methylpyridin-2-yl)thiazol-5-yl)oxy)pyridin-2-yl)amino)phenyl)propanoate] is less than 100 nM; for `COc1cc(Nc2cc(Oc3sc(N)nc3-c3ccccc3)ccn2)ccn1` [A-24, 5-((2-((2-Methoxypyridin-4-yl)amino)pyridin-4-yl)oxy)-4-phenylthiazol-2-amine] it is less than 100 nM; for `COc1cc(Nc2cc(Oc3sc(C)nc3-c3ccccc3)ccn2)ccc1N1CCN(C)CC1` [A-106, N-(3-Methoxy-4-(4-methylpiperazin-1-yl)phenyl)-4-((2-methyl-4-phenylthiazol-5-yl)oxy)pyridin-2-amine] it is less than 100 nM.

On to `CNS(=O)(=O)c1cccc(Nc2cc(Oc3sc(N)nc3-c3ccccc3)ccn2)c1` [A-12, 3-((4-((2-Amino-4-phenylthiazol-5-yl)oxy)pyridin-2-yl)amino)-N-methylbenzenesulfonamide], for which the IC50 was less than 100 nM.

On to `Cc1nc(-c2ccccc2)c(Oc2ccnc(Nc3cn[nH]c3)c2)s1` [A-100, 4-((2-Methyl-4-phenylthiazol-5-yl)oxy)-N-(1H-pyrazol-4-yl)pyridin-2-amine], for which the IC50 is less than 100 nM. The result for `Cc1nc(-c2ccccc2)c(Oc2ccnc(Nc3ccnc(C(N)=O)c3)c2)s1` [A-102, 4-((4-((2-Methyl-4-phenylthiazol-5-yl)oxy)pyridin-2-yl)amino)picolinamide] reads greater than 100 nM; that for `Cc1nc(-c2ccccc2)c(Oc2ccnc(Nc3cccc(S(=O)(=O)NC4CC4)c3)c2)s1` [A-76, N-Cyclopropyl-3-((4-((2-methyl-4-phenylthiazol-5-yl)oxy)pyridin-2-yl)amino)benzenesulfonamide], less than 100 nM; that for `Nc1nc(-c2ccccc2)c(Oc2ccnc(Nc3ccnc(Cl)c3)c2)s1` [A-27, 5-((2-((2-Chloropyridin-4-yl)amino)pyridin-4-yl)oxy)-4-phenylthiazol-2-amine], greater than 100 nM.

Turning to `Cc1nc(-c2ccccc2)c(Oc2ccnc(NCc3cccc(F)c3)c2)s1` [A-96, N-(3-Fluorobenzyl)-4-((2-methyl-4-phenylthiazol-5-yl)oxy)pyridin-2-amine], the IC50 was greater than 100 nM. The figure for `CCc1nc(-c2ccccc2)c(Oc2ccnc(Nc3cccc(NS(=O)(=O)C(F)(F)F)c3)c2)s1` [A-311, N-(3-((4-((2-Ethyl-4-phenylthiazol-5-yl)oxy)pyridin-2-yl)amino)phenyl)-1,1,1-trifluoromethanesulfonamide] is less than 100 nM. `Nc1nc(-c2ccccc2)c(Oc2cc(Nc3cccc(S(N)(=O)=O)c3)ncn2)s1` [A-239, 3-((6-((2-Amino-4-phenylthiazol-5-yl)oxy)pyrimidin-4-yl)amino)benzenesulfonamide]: the IC50 was less than 100 nM. On to `Cc1nc(-c2ccccc2)c(Oc2ccnc(Nc3cccc(CS(C)(=O)=O)c3)c2)s1` [A-79, 4-((2-Methyl-4-phenylthiazol-5-yl)oxy)-N-(3-((methylsulfonyl)methyl)phenyl)pyridin-2-amine], for which the IC50 is less than 100 nM. The figure for `Cc1nc(-c2ccccc2)c(Oc2ccnc(Nc3ccc(C(N)=O)cn3)c2)s1` [A-90, 6-((4-((2-Methyl-4-phenylthiazol-5-yl)oxy)pyridin-2-yl)amino)nicotinamide] is less than 100 nM. The result for `COc1ccc(Nc2cc(Oc3sc(C)nc3-c3ccccc3)ccn2)cc1` [A-103, N-(4-Methoxyphenyl)-4-((2-methyl-4-phenylthiazol-5-yl)oxy)pyridin-2-amine] reads greater than 100 nM. For the compound `Cc1nc(-c2ccccc2)c(Oc2cc(Nc3cccc(S(N)(=O)=O)c3)ncn2)s1` [A-237, 3-((6-((2-Methyl-4-phenylthiazol-5-yl)oxy)pyrimidin-4-yl)amino)benzenesulfonamide], the IC50 is greater than 100 nM. Turning to `Nc1nc(-c2ccccc2)c(Oc2ccnc(NCc3cccc(F)c3)c2)s1` [A-21, 5-((2-((3-Fluorobenzyl)amino)pyridin-4-yl)oxy)-4-phenylthiazol-2-amine], the IC50 is greater than 100 nM. Regarding `Nc1nc(-c2ccccc2)c(Oc2ccnc(NCc3ccncc3)c2)s1` [A-26, 4-Phenyl-5-((2-((pyridin-4-ylmethyl)amino)pyridin-4-yl)oxy)thiazol-2-amine], the IC50 was greater than 100 nM. The figure for `Cc1cccc(-c2nc(C)sc2Oc2ccnc(Nc3cccc(CCC#N)c3)c2)n1` [A-306, 3-(3-((4-((2-Methyl-4-(6-methylpyridin-2-yl)thiazol-5-yl)oxy)pyridin-2-yl)amino)phenyl)propanenitrile] is less than 100 nM. On to `Cc1cccc(-c2nc(C)sc2Oc2ccnc(Nc3cccc(CCc4nn[nH]n4)c3)c2)n1` [A-307, N-(3-(2-(2H-tetrazol-5-yl)ethyl)phenyl)-4-((2-methyl-4-(6-methylpyridin-2-yl)thiazol-5-yl)oxy)pyridin-2-amine], for which the IC50 was less than 100 nM.
